According to article PMC6499206, “Quantification of Volatile Metabolites Derived From Garlic (Allium sativum) in Human Urine” (Frontiers in Nutrition, 2019):

Assay: Quantification of garlic-derived metabolites in human urine after ingestion of 3 g raw garlic (SIDA, SAFE, HRGC-MS / HRGC-GC-MS)
Format: in vivo
Set-up: metabolite in urine related to creatinine: unit not given here
Conditions: for metabolite concentration in urine, creatinine-normalized / metabolite concentration in urine / highest detected concentration of the sample series: 3 g raw garlic; for highest detected concentration of the sample series: same bulb
In short: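 Quantification used stable isotope dilution (²H3-AMS, -AMSO, -AMSO2 standards), SAFE distillation at 50°C of DCM-treated urine, and GC-MS on a DB-FFAP column, with creatinine from the Jaffé reaction at 492 nm. Urine came from 18 volunteers avoiding sulfur-rich foods, sampled before and up to 24 h after eating 3 g raw garlic.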

**Q.** What does the source list for `C=CC[S+](C)[O-]` (stereo not shown) [AMSO, allyl methyl sulfoxide]?
**A.** metabolite concentration in urine, creatinine-normalized (U XII, 1 h post (1.03 h)): 83.2 µg/mmol creatinine; metabolite concentration in urine (U XII, 2 h post (1.85 h)): 72.2 µg/kg; metabolite concentration in urine, creatinine-normalized (U XII, 2 h post (1.85 h)): 108.2 µg/mmol creatinine; metabolite concentration in urine (U XII, 4 h post (3.80 h)): 84.6 µg/kg; metabolite concentration in urine, creatinine-normalized (U XII, 4 h post (3.80 h)): 31.9 µg/mmol creatinine; metabolite concentration in urine (U XII, 6 h post (5.82 h)): 61.6 µg/kg; metabolite concentration in urine, creatinine-normalized (U XII, 6 h post (5.82 h)): 10.8 µg/mmol creatinine; metabolite concentration in urine (U XII, 8 h post (7.82 h)): 28.7 µg/kg; metabolite concentration in urine, creatinine-normalized (U XII, 8 h post (7.82 h)): 10.1 µg/mmol creatinine; metabolite concentration in urine (U XII, 24 h post (23.92 h)): 11.3 µg/kg; metabolite concentration in urine, creatinine-normalized (U XII, 24 h post (23.92 h)): 0.8 µg/mmol creatinine; metabolite concentration in urine (U XII, pre (-0.08 h)): 3.9 µg/kg; metabolite concentration in urine, creatinine-normalized (U XII, pre (-0.08 h)): 0.2 µg/mmol creatinine; metabolite concentration in urine (U XIII, 0.5 h post (0.42 h)): 38.0 µg/kg; metabolite concentration in urine, creatinine-normalized (U XIII, 0.5 h post (0.42 h)): 23.8 µg/mmol creatinine; metabolite concentration in urine (U XIII, 1 h post (0.92 h)): 216.6 µg/kg; metabolite concentration in urine, creatinine-normalized (U XIII, 1 h post (0.92 h)): 87.7 µg/mmol creatinine; metabolite concentration in urine (U XIII, 2 h post (1.92 h)): 197.5 µg/kg; metabolite concentration in urine, creatinine-normalized (U XIII, 2 h post (1.92 h)): 57.1 µg/mmol creatinine; metabolite concentration in urine (U XIII, 4 h post (3.92 h)): 105.6 µg/kg; metabolite concentration in urine, creatinine-normalized (U XIII, 4 h post (3.92 h)): 22.5 µg/mmol creatinine; metabolite concentration in urine (U XIII, 6 h post (5.92 h)): 42.9 µg/kg; metabolite concentration in urine, creatinine-normalized (U XIII, 6 h post (5.92 h)): 3.7 µg/mmol creatinine; metabolite concentration in urine (U XIII, 8 h post (7.92 h)): 2.6 µg/kg; metabolite concentration in urine, creatinine-normalized (U XIII, 8 h post (7.92 h)): 0.3 µg/mmol creatinine; metabolite concentration in urine (U XIII, 24 h post (23.92 h)): 2.6 µg/kg; metabolite concentration in urine, creatinine-normalized (U XIII, 24 h post (23.92 h)): 0.3 µg/mmol creatinine; metabolite concentration in urine (U XIII, pre (-0.08 h)): < LOD^2; metabolite concentration in urine, creatinine-normalized (U XIII, pre (-0.08 h)): < LOD^2; variation factor of the concentration maxima between test persons (Urine XIII-XVI, highest vs lowest maximum): up to 3.0; highest detected concentration of the sample series (Urine XIII): 87.7 μg/mmol creatinine; highest detected concentration of the sample series (Urine XIV (AMS: printed Urine UIV)): 84.7 μg/mmol creatinine; highest detected concentration of the sample series (Urine XV): 150.4 μg/mmol creatinine; highest detected concentration of the sample series (Urine XVI): 50.1 μg/mmol creatinine; metabolite in urine related to creatinine (urine set U XIX, 0.5 h post (0.50 h), garlic 3.1133 g): 15.1; metabolite in urine related to creatinine (urine set U XIX, 1 h post (1.00 h), garlic 3.1133 g): 68.8; metabolite in urine related to creatinine (urine set U XIX, 2 h post (2.00 h), garlic 3.1133 g): 70.6; metabolite in urine related to creatinine (urine set U XIX, 4 h post (4.00 h), garlic 3.1133 g): 27.0; metabolite in urine related to creatinine (urine set U XIX, 6 h post (6.20 h), garlic 3.1133 g): 9.8; metabolite in urine related to creatinine (urine set U XIX, 8 h post (7.93 h), garlic 3.1133 g): 5.9; metabolite in urine related to creatinine (urine set U XIX, 24 h post (23.98 h), garlic 3.1133 g): 0.2; metabolite in urine related to creatinine (urine set U XIX, pre (-0.07 h), garlic 3.1133 g): < LOD^2; metabolite in urine related to creatinine (urine set U XVII, 0.5 h post (0.58 h), garlic 3.1559 g): 0.8; metabolite in urine related to creatinine (urine set U XVII, 1 h post (1.00 h), garlic 3.1559 g): 10.7; metabolite in urine related to creatinine (urine set U XVII, 2 h post (2.17 h), garlic 3.1559 g): 27.6; metabolite in urine related to creatinine (urine set U XVII, 4 h post (4.00 h), garlic 3.1559 g): 15.5; metabolite in urine related to creatinine (urine set U XVII, 6 h post (6.08 h), garlic 3.1559 g): 1.2; metabolite in urine related to creatinine (urine set U XVII, 8 h post (8.00 h), garlic 3.1559 g): 1.8; metabolite in urine related to creatinine (urine set U XVII, 24 h post (23.92 h), garlic 3.1559 g): 0.2; metabolite in urine related to creatinine (urine set U XVII, pre (-0.08 h), garlic 3.1559 g): 0.3; metabolite in urine related to creatinine (urine set U XVIII, 0.5 h post (0.63 h), garlic 3.1981 g): 44.1; metabolite in urine related to creatinine (urine set U XVIII, 1 h post (1.05 h), garlic 3.1981 g): 84.8; metabolite in urine related to creatinine (urine set U XVIII, 2 h post (2.00 h), garlic 3.1981 g): 94.9; metabolite in urine related to creatinine (urine set U XVIII, 4 h post (3.97 h), garlic 3.1981 g): 50.9; metabolite in urine related to creatinine (urine set U XVIII, 6 h post (5.97 h), garlic 3.1981 g): 16.6; metabolite in urine related to creatinine (urine set U XVIII, 8 h post (8.30 h), garlic 3.1981 g): 17.1; metabolite in urine related to creatinine (urine set U XVIII, 24 h post (24.13 h), garlic 3.1981 g): 0.5; metabolite in urine related to creatinine (urine set U XVIII, pre (-0.08 h), garlic 3.1981 g): < LOD^2
